Test results from patent US20200016200A1, “MODULATING CYTOTOXIC CELL LYTIC GRANULE POSITIONING TO PROMOTE DIFFUSE KILLING IN CELLULAR THERAPIES” (Baylor College of Medicine, priority 2016, published 2020).
Entries after “also recorded” stand apart in the source; their conditions may differ.

Experiments:
[1] = test system: GD2 CAR-bearing T cells; assay: Flow cytometry-based cytotoxicity assay, 48 h, bystander killing; assay type: cell-based; conditions: ciliobrevin D 90 μM, vs DMSO
Experimental: FIG. 23. Bystander killing with ciliobrevin D in the presence of GD2 CAR-bearing T cells. Flow cytometry-based cytotoxicity assay of GD2 CAR-bearing T cells treated with ciliobrevin D (90 μM) or DMSO control. BV173 cells were used as non-susceptible bystander cells to measure the degree of non-specific killing (Left). Daoy-CD19 cells were used as activating target cells (Right). After 48 h incubation, percent cell lysis and total cell number were measured using SYTOX Blue viability dye and flow cytometer cell counting beads, respectively. […] The non-specific lysis of BV173 cells increased after ciliobrevin D treatment while specific lysis of Daoy-CD19 cells was not affected.
(§1) Similarly, compared to DMSO, ciliobrevin D-treated CD19 CAR NK cells lyse approximately 24%, 39% and 40% more bystander cells at the concentration of 12.5, 25 and 50 μM, respectively (FIG. 22). […] FIG. 23 and FIG. 24 are time-lapse images of videos of control ([…]) and ciliobrevin D-treated ([…]) CD19 CAR T cells. […] In the control group, however, lytic granules converge immediately upon interacting with the target cell and remain tightly clustered until target is killed by the CD19 CAR T cell as indicated by uptake of the SYTOX Blue viability dye.

[2] = test system: CD19 CAR T cells; assay: Standard 4-hour 51Cr cytotoxicity assay, bystander killing; assay type: cell-based; conditions: for increase of bystander killing compared to DMSO control: 10:1 effector to target ratio, BV173 bystanders, Daoy-CD19 inciting targets, representative donor
Experimental: FIG. 21. Bystander killing with increasing amounts of ciliobrevin D in the presence of CD19 CAR-bearing T cells. Standard 4-hour ^51Cr cytotoxicity assay of CD19 CAR T cells treated with ciliobrevin D (25, 50 and 100 μM) or DMSO control. CD19-expressing Daoy cells (Daoy-CD19, a medulloblastoma cell line engineered to express CD19) were used as inciting target cells to trigger the activation of CD19 CAR-bearing T cells. BV173 cells, a human acute lymphoblastic leukemia cell line, were used as non-susceptible bystander cells to measure the degree of collateral damage caused by non-directional degranulation.
as §1

[3] = test system: NK92 cells; assay: Lytic granule convergence, fixed cell confocal microscopy (granule to MTOC distance); assay type: cell-based, human; conditions: NK92 conjugated with K562 target cells; ciliobrevin D 100 μM vs vehicle
Source text: (§2) In previous studies, it was shown that granule convergence is dynein-dependent (Mentlik et al., 2010). To further characterize this, regarding the role for convergence in promoting killing efficiency and protecting bystanders, a small molecule dynein inhibitor ciliobrevin D (Firestone et al., 2012) was used to try and block the convergence of lytic granules to the MTOC from their dispersed localization in the cytoplasm. This would allow us to manipulate granule trafficking via blocking the motor protein function, instead of altering activating signal input. YTS, NK92 or eNK cells were treated with either ciliobrevin D or vehicle and conjugated with their respective target cells. […] As a separate measure of granule dispersion, the standard deviation of the granule to MTOC distance was calculated to show the degree of scatter of individual lytic granules. […] CD107a staining was additionally performed to test whether ciliobrevin D treatment affected the exocytosis of lytic granules; the proportion of eNK cells that degranulated after treatment with ciliobrevin D increased (FIG. 13A), whereas in the NK cell lines it decreased (FIG. 13B-13C). In all cases, however, degranulation still occurred in the presence of ciliobrevin D. […]
(§3) Raw image sequences were analyzed using Volocity software. For lytic granules, the centroid of individual lytic granule was designated automatically based on the fluorescence intensity of the corresponding staining (LysoTracker Red or perforin) (Mentlik et al., 2010). For MTOC, in fixed-cell confocal experiments, the point with the highest fluorescence intensity of α-tubulin staining was denoted as the localization of MTOC; in live-cell experiments, the geometric centroid of all the lytic granules in the cell was used to provide a measure of proximity of lytic granule regions. Lytic granule convergence to the MTOC or to the centroid of all granules was measured as previously described (Mentlik et al., 2010). […]

[4] = test system: eNK cells; assay: as above; assay type: cell-based, human; conditions: eNK conjugated with K562 target cells; ciliobrevin D 100 μM vs vehicle
Source text: as §2, §3

[5] = test system: YTS cells; assay: as above; assay type: cell-based, human; conditions: YTS conjugated with 721.221 target cells; ciliobrevin D 100 μM vs vehicle
Source text: as §2, §3

`N#CC(C(=O)c1ccc(Cl)cc1Cl)=C1NC(=O)c2ccc(Cl)cc2N1` [ciliobrevin D, 2-(7-chloro-4-oxo-3,4-dihydroquinazolin-2(1H)-ylidene)-3-(2,4-dichlorophenyl)-3-oxopropanenitrile] was tested. Which “specific lysis of Daoy-CD19 target cells” value ([1]; 48 h incubation) did it give?
The value was “remains similar to the DMSO control; also recorded: not affected”.

And the “decrease of total number of BV173 (bystander) cells” value ([1]; after 48 h incubation)?
The value was roughly 20%.

What about the “total number of Daoy-CD19 (target) cells” value ([1]; after 48 h incubation) of the same molecule?
The value was “does not change; also recorded: remained similar to the DMSO control”.

And the “increase of bystander killing compared to DMSO control” value (shortened to “increase of bystander killing”) ([2]; 25 μM)?
Its value is “approximately 48%”.

What about the “increase of bystander killing” value ([2]; 50 μM) of the same molecule?
The value was roughly 71%.

What about the “increase of bystander killing” value ([2]; 100 μM) of the same molecule?
The value was roughly 90%.

And the “non-specific lysis of BV173 cells” value ([2]; 25, 50 and 100 μM, each effector to target ratio, vs DMSO)?
The value was “dose-dependent increases”.

And the “lytic granule convergence as determined by mean granule to MTOC distance” value (“lytic granule convergence as determined” for short) [3]?
Its value is “blocked lytic granule convergence”.

And the “lytic granule convergence as determined” value [4]?
Its value is “blocked lytic granule convergence”.

And the “lytic granule convergence as determined” value [5]?
The value was “blocked lytic granule convergence”.
